{"source": "the supplement of paper PMC10307832", "experiment_in_all_cases": "relative viability (nuclei count vs DMSO), 5 days (fraction); higher = more cells survive", "key": {"HOP-62": {"tested_on": "HOP-62", "how_it_was_run": "(§1)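 For relative viability, nuclei counts in treated wells were divided by those in vehicle wells. Lung cancer cell lines had been pin-tool dosed in 1536-well plates the day after seeding and cultured for 5 days, then fixed and stained in one step (final 0.05% Triton X-100, 1% formaldehyde, 1 ug/ml Hoechst) and imaged at 4×. Doses were one drug alone or a fixed anchor-drug dose plus five library-drug doses (not always all listed) in √10 steps, and values are duplicate-plate medians.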"}, "NCI-H1437": {"tested_on": "NCI-H1437", "how_it_was_run": "as §1"}, "LCLC-103H": {"tested_on": "LCLC-103H", "how_it_was_run": "as §1"}, "HCC-44": {"tested_on": "HCC-44", "how_it_was_run": "as §1"}, "EPLC-272H": {"tested_on": "EPLC-272H", "how_it_was_run": "as §1"}, "NCI-H441": {"tested_on": "NCI-H441", "how_it_was_run": "as §1"}, "NCI-H520": {"tested_on": "NCI-H520", "how_it_was_run": "as §1"}, "NCI-H2009": {"tested_on": "NCI-H2009", "how_it_was_run": "as §1"}, "NCI-H2023": {"tested_on": "NCI-H2023", "how_it_was_run": "as §1"}, "SW 1573": {"tested_on": "SW 1573", "how_it_was_run": "as §1"}, "NCI-H23": {"tested_on": "NCI-H23", "how_it_was_run": "as §1"}}}
{"compound": "O=C(O)CCCCC(CCSCc1ccccc1)SCc1ccccc1", "note": "(stereo not given) [CPI-613] + C[C@@H](Oc1cc(-c2cnn(C3CCNCC3)c2)cnc1N)c1c(Cl)ccc(F)c1Cl [Crizotinib] (partner 1 µM)", "values": [{"measurement": "relative viability", "setting": "HOP-62; first compound 5 µM", "result": 0.862}, {"measurement": "relative viability", "setting": "HOP-62; first compound 15.81 µM", "result": 0.85}, {"measurement": "relative viability", "setting": "HOP-62; first compound 50 µM", "result": 0.851}, {"measurement": "relative viability", "setting": "HOP-62; first compound 158.11 µM", "result": 0.172}, {"measurement": "relative viability", "setting": "HOP-62; first compound 500 µM", "result": 0.387}, {"measurement": "relative viability", "setting": "NCI-H1437; first compound 5 µM", "result": 0.96}, {"measurement": "relative viability", "setting": "NCI-H1437; first compound 15.81 µM", "result": 0.794}, {"measurement": "relative viability", "setting": "NCI-H1437; first compound 50 µM", "result": 0.857}, {"measurement": "relative viability", "setting": "NCI-H1437; first compound 158.11 µM", "result": 0.229}, {"measurement": "relative viability", "setting": "NCI-H1437; first compound 500 µM", "result": 0.0274}, {"measurement": "relative viability", "setting": "LCLC-103H; first compound 5 µM", "result": 1.11}, {"measurement": "relative viability", "setting": "LCLC-103H; first compound 15.81 µM", "result": 1.1}, {"measurement": "relative viability", "setting": "LCLC-103H; first compound 50 µM", "result": 0.917}, {"measurement": "relative viability", "setting": "LCLC-103H; first compound 158.11 µM", "result": 0.855}, {"measurement": "relative viability", "setting": "LCLC-103H; first compound 500 µM", "result": 0.861}, {"measurement": "relative viability", "setting": "HCC-44; first compound 5 µM", "result": 0.834}, {"measurement": "relative viability", "setting": "HCC-44; first compound 15.81 µM", "result": 0.791}, {"measurement": "relative viability", "setting": "HCC-44; first compound 50 µM", "result": 0.785}, {"measurement": "relative viability", "setting": "HCC-44; first compound 158.11 µM", "result": 0.295}, {"measurement": "relative viability", "setting": "HCC-44; first compound 500 µM", "result": 0.0369}, {"measurement": "relative viability", "setting": "EPLC-272H; first compound 5 µM", "result": 0.9}, {"measurement": "relative viability", "setting": "EPLC-272H; first compound 15.81 µM", "result": 0.925}, {"measurement": "relative viability", "setting": "EPLC-272H; first compound 50 µM", "result": 1.03}, {"measurement": "relative viability", "setting": "EPLC-272H; first compound 158.11 µM", "result": 0.855}, {"measurement": "relative viability", "setting": "EPLC-272H; first compound 500 µM", "result": 1.07}, {"measurement": "relative viability", "setting": "NCI-H441; first compound 5 µM", "result": 0.685}, {"measurement": "relative viability", "setting": "NCI-H441; first compound 15.81 µM", "result": 0.683}, {"measurement": "relative viability", "setting": "NCI-H441; first compound 50 µM", "result": 0.635}, {"measurement": "relative viability", "setting": "NCI-H441; first compound 158.11 µM", "result": 0.303}, {"measurement": "relative viability", "setting": "NCI-H441; first compound 500 µM", "result": 0.343}, {"measurement": "relative viability", "setting": "NCI-H520; first compound 5 µM", "result": 0.721}, {"measurement": "relative viability", "setting": "NCI-H520; first compound 15.81 µM", "result": 0.716}, {"measurement": "relative viability", "setting": "NCI-H520; first compound 50 µM", "result": 0.626}, {"measurement": "relative viability", "setting": "NCI-H520; first compound 158.11 µM", "result": 0.233}, {"measurement": "relative viability", "setting": "NCI-H520; first compound 500 µM", "result": 0.106}, {"measurement": "relative viability", "setting": "NCI-H2009; first compound 5 µM", "result": 1.1}, {"measurement": "relative viability", "setting": "NCI-H2009; first compound 15.81 µM", "result": 1.01}, {"measurement": "relative viability", "setting": "NCI-H2009; first compound 50 µM", "result": 1.04}, {"measurement": "relative viability", "setting": "NCI-H2009; first compound 158.11 µM", "result": 0.462}, {"measurement": "relative viability", "setting": "NCI-H2009; first compound 500 µM", "result": 0.0097}, {"measurement": "relative viability", "setting": "NCI-H2023; first compound 5 µM", "result": 0.583}, {"measurement": "relative viability", "setting": "NCI-H2023; first compound 15.81 µM", "result": 0.605}, {"measurement": "relative viability", "setting": "NCI-H2023; first compound 50 µM", "result": 0.598}, {"measurement": "relative viability", "setting": "NCI-H2023; first compound 158.11 µM", "result": 0.388}, {"measurement": "relative viability", "setting": "NCI-H2023; first compound 500 µM", "result": 0.0057}, {"measurement": "relative viability", "setting": "SW 1573; first compound 5 µM", "result": 0.81}, {"measurement": "relative viability", "setting": "SW 1573; first compound 15.81 µM", "result": 0.749}, {"measurement": "relative viability", "setting": "SW 1573; first compound 50 µM", "result": 0.878}, {"measurement": "relative viability", "setting": "SW 1573; first compound 158.11 µM", "result": 0.819}, {"measurement": "relative viability", "setting": "SW 1573; first compound 500 µM", "result": 0.419}, {"measurement": "relative viability", "setting": "NCI-H23; first compound 5 µM", "result": 0.542}, {"measurement": "relative viability", "setting": "NCI-H23; first compound 15.81 µM", "result": 0.563}, {"measurement": "relative viability", "setting": "NCI-H23; first compound 50 µM", "result": 0.488}, {"measurement": "relative viability", "setting": "NCI-H23; first compound 158.11 µM", "result": 0.189}, {"measurement": "relative viability", "setting": "NCI-H23; first compound 500 µM", "result": 0.0618}]}
